Assay results reported in US8420859B2, “Formulations” (Syngenta Limited, priority 2006, dated 2013).

Columns and labels:
[1] = test system: amaranthus retroflexus (AMARE), alopecurus myosuorides (ALOMY), chenopodium album (CHEAL) and digitaria sanguinalis (DIGSA); assay: Phytotoxic damage to young plants sprayed with solvent; assay type: in vivo; settings: for Observed damage with solvent and Tween 20: solvent 1% w/w plus 0.5% Tween 20, 2500 litres per hectare
Source text: Formulations that are applied to crop plants can often lead to phytotoxic damage. This damage may take the form of the formation of necrotic spots where sprayed formulation has landed on leaf surfaces or it may take the form of chlorosis or larger scale damage to the plant such as dessication and death. In order to assess the safety of solvents to plant species they were sprayed at high usage rates and high water volumes onto very sensitive, young plants.
The plant species amaranthus retroflexus (AMARE), alopecurus myosuorides (ALOMY), chenopodium album (CHEAL) and digitaria sanguinalis (DIGSA) were grown from seed under glass house conditions until they reached the first leaf stage. A solvent was dissolved in distilled water at a rate of 1% w/w and sprayed onto the plants at a rate of 2500 litres per hectare using a laboratory track sprayer. The plants were maintained in the glasshouse for a period of 2 weeks in order to observe any effects on the plants. Untreated plants were grown and kept under the same conditions as a direct comparison to the treated samples. A second set of identical plants was also sprayed with the novel solvent however in this case 0.5% of the commercial surfactant Tween 20 (T) was also added to the spray solution. In this experiment control plants for comparison were also sprayed with 0.5% Tween 20 but not with the solvent. Plants were examined after 1, 2, 6, 7, 9 and 13 days to try to find evidence of damage to the treated plants. All experiments were carried out in duplicate.

skin = assay: SIFT (Skin Integrity Function Test): electrical resistance of skin after exposure
Source text: Skin irritation and damage can be measured most easily by a well-known SIFT (Skin Integrity Function Test) procedure measuring the electrical resistance of the skin after exposure to the material of interest and comparing this to the electrical resistance of untreated skin. […] SLS is used in shampoo and toothpaste formulations and is a suitable control because much is known about its irritating behaviour on human skin and eye tissue.

[2] = Flash point, Seta flash 3 closed cup tester; assay type: physicochemical; settings: Seta flash 3 closed cup tester model 30000-0
Method: The flammability of solvents is of concern to minimise risk during storage, transport and use. Typically the risk is assessed by measuring the flash point of the solvent. […] The measured value was 108° C.

daphnia = assay: Daphnia screening at 100 mg/l, immobility over 24 and 48 hours; assay type: in vivo; settings: single concentration 100 mg/l, 18-19° C., four replicates; for EC50: 48 h
Method: Daphnia screening is commonly carried out to assess the inherent toxicity of chemicals. In this test five daphnia were placed in a beaker full of water held between 18 and 19° C. A lactamide chemical of interest was introduced to a concentration of 100 mg/l and the daphnia were monitored over 24 and 48 hours. Any daphnia which became immobile were recorded and the number was used for the assessment. If less than half of the daphnia were immobile after 48 hours the EC50 (48 hours) figure was classified as being >100 mg/l [otherwise, it would be less than or equal to 100 mg/l]. The lactamides of Table 6 were tested and their EC50 figures are tabulated (each experiment was replicated four times and in fact in all these tests none of the daphnia died): […]

[3] = Solubility of cyproconazole in solvent (saturated solution, HPLC); assay type: physicochemical
Method: A sample of a solvent (200 microlitres) was added to a 4 ml volume glass vial. The pesticide cyproconazole was added to the vial and shaken to allow thorough mixing. The vial was left to equilibrate at 25° C. for 24 hours after which time it was examined visually. If the solid had dissolved a further quantity of cyproconazole was added, the vial shaken and then left for another 24 hours. This process was repeated until a saturated solution had formed after which time the vial was left to equilibrate for one week. The glass vial was thoroughly shaken using a laboratory Whirlimixer™ (T) (Fisons Scientific Instruments Limited), once per day, during this period. After this time the sample was centrifuged, the supernatant was sampled and analysed by HPLC with reference to a known weight of pure cyproconazole, in order to determine the concentration of cyproconazole in solution.

[4] = solvent 1% w/w in distilled water, 2500 litres per hectare, first leaf stage plants, examined 1-13 days, duplicate
[5] = first leaf stage plants, examined 1-13 days, duplicate

| Molecule | Observed damage with solvent [1, 4] | Observed damage with solvent and Tween 20 [1, 5] | further results |
| --- | --- | --- | --- |
| CC(C)NC(=O)C(C)O (stereo not drawn) [N-isopropyl Lactamide] | None | None | – |
| CC(O)C(=O)N(C)C (stereo not drawn) [dimethyl lactamide, N,N-dimethyl lactamide] | – | – | Electrical resistivity (skin; 1 % w/w): 8.04 kilo ohms; Electrical resistivity (skin; 10 % w/w): 7.72 kilo ohms; flash point [2]: 108 °C |
| N-1-hyroxyethylbutyl lactamide | None | None | – |
| CCCCCCCCCCCCOS(=O)(=O)[O-].[Na+] [SLS, sodium lauryl sulphate] | – | – | Electrical resistivity (skin; 0.5% w/w aqueous solution, Table 2, untreated control 8.00): 2.03 kilo ohms; Electrical resistivity (skin; 1.0% solution, Table 2, untreated control 8.00): 1.84 kilo ohms; Electrical resistivity (skin; 10.0% solution, Table 2, untreated control 8.00): 0.91 kilo ohms; Electrical resistivity (skin; 10% w/w solution, skin post-treatment, mean of five measurements, untreated control 8.00): 0.91 kilo ohms |
| CC(C)CC(C)NC(=O)C(C)O (stereo not drawn) [N-1,3-dimethyl butyl lactamide] | None | None | – |
| CCC(C)NC(=O)C(C)O (stereo not drawn) [N-sec-butyl lactamide] | None | None | – |
| CC(O)C(=O)NCc1ccccc1 (stereo not drawn) [N-benzyl Lactamide] | None | None | – |
| CC(C)CNC(=O)C(C)O (stereo not drawn) [N-isobutyl lactamide] | None | None | – |
| CCN(CCO)C(=O)C(C)O (stereo not drawn) [N-ethyl-N-2-hydroxyethyl lactamide] | None | None | EC50 (48 hours) (daphnia): >100 µg/mL; % cyproconazole in solution [3]: 18.2% w/w |
| CCCCN(C)C(=O)C(C)O (stereo not drawn) [N-methyl-N-butyl lactamide] | None | None | EC50 (48 hours) (daphnia): >100 µg/mL; % cyproconazole in solution [3]: 33.0% w/w |
| CCCN(C)C(=O)C(C)O (stereo not drawn) [N-methyl-N-propyl lactamide] | None | None | EC50 (48 hours) (daphnia): >100 µg/mL; % cyproconazole in solution [3]: 27.3% w/w |
| CC(O)C(=O)NN1CCCC1 (stereo not drawn) [N-pyrrolidinyl lactamide] | None | None | – |
| CCNC(=O)C(C)O (stereo not drawn) [N-ethyl lactamide] | None | None | – |
| CCCCC(CC)CNC(=O)C(C)O (stereo not drawn) [N-(2-ethylhexyl) lactamide] | – | – | EC50 (daphnia): > 100 µg/mL |
| CCC(CO)NC(=O)C(C)O (stereo not drawn) [N-1-ethyl-2-hydroxyethyl lactamide] | – | None | – |
| CC(C)CCC(C)NC(=O)C(C)O (stereo not drawn) [N-1,4-dimethylpentyl lactamide] | – | – | % cyproconazole in solution [3]: 10.5% w/w |
| CC(O)C(=O)NCCCN1CCOCC1 (stereo not drawn) [N-propyl morpholynyl lactamide] | None | None | – |
| CC(O)C(=O)NN1CCOCC1 (stereo not drawn) [N-morpholinyl lactamide] | None | None | EC50 (daphnia): > 100 µg/mL |
| CC(O)C(=O)N(CCO)Cc1ccccc1 (stereo not drawn) [N-hydroxyethyl-N-benzyl lactamide] | None | None | EC50 (48 hours) (daphnia): >100 µg/mL; % cyproconazole in solution [3]: 25.0% w/w |
| CCN(CC)CCCNC(=O)C(C)O (stereo not drawn) [3-diethylamino propyl lactamide] | None | – | – |
| CCC(CC)NC(=O)C(C)O (stereo not drawn) [N-(1-ethylpropyl) lactamide] | – | – | EC50 (daphnia): > 100 µg/mL |
| N-2-hydroxyethyl piperidinyl lactamide | None | None | EC50 (48 hours) (daphnia): >100 µg/mL; % cyproconazole in solution [3]: 19.3% w/w |
| CC(O)C(=O)NCCO (stereo not drawn) [N-2-hydroxyethyl lactamide] | – | – | Observed damage with solvent ([1]; in vivo): None |
| C=CCNC(=O)C(C)O (stereo not drawn) [N-allyl lactamide] | None | None | EC50 (daphnia): > 100 µg/mL |
